Reference: US4309425A (priority 1980, dated 1982)
Like-named read-outs stand apart in the source and are kept apart here.

How the values were obtained:
[1] = tested on: Puccinia graminis var. tritici; experiment: whole plant or invertebrate; type: in vivo; conditions: 192 h, read-out: % control wheat rust in preventive test
Rhizopus = experiment: Rhizopus-corn meal mixture overspray test; conditions: 168 h, read-out: % control Rhizopus
Protocol: Compounds of this invention were dissolved in acetone in an amount equal to 6% of final volume and then suspended at a concentration of 100 ppm in purified water containing 500 ppm of the surfactant Alkanol® XC (sodium alkyl naphthalene sulfonate). This solution was oversprayed on a Rhizopus-corn meal mixture in 6 cm aluminum cups. The sprayed plates were placed in a closed plastic bag, stored at 20° C. for 7 days, and then rated.
The untreated cups were completely covered with Rhizopus mycelial growth, but the treated cups were mostly free of growth by this disease-causing organism.

[2] = tested on: Puccinia graminis var. tritici; experiment: whole plant or invertebrate; type: in vivo; conditions: 192 h, read-out: % control wheat rust in residual wash-off test
[3] = tested on: organo-phosphorous resistant two-spotted spider mites; experiment: organo-phosphorous resistant two-spotted spider mites on bean plants, spray, mortality after two days; conditions: Tetranychus urticae, 48 h, read-out: % Mortality (2 days)
Erysiphe cichoracearum [4] = experiment: cucumber powdery mildew preventive test; type: in vivo; conditions: Golovinomyces cichoracearum, 168 h, 7 days
Protocol: (§1) Compounds of this invention are dissolved in acetone in an amount equal to 6% of the final volume and then suspended at a concentration of 20 ppm in purified water containing 25 ppm of the surfactant Alkanol® XC (sodium alkyl naphthalene sulfonate). This suspension is sprayed to the point of run-off on cucumber seedlings. The following day, the plants are inoculated with a spore suspension of the fungus Erysiphe cichoracearum and incubated in a growth room for 7 days. Disease ratings are then made. […] Phytotoxicity in the form of foliar burn or growth reduction was observed on some of the plants in association with disease control.

Venturia inaequalis [5] = experiment: apple scab photostability test; type: in vivo; conditions: xenon arc 3500 foot candles 16 hours, 10-12 days
Protocol: as §1, with “apple” for “cucumber”, “seedlings. When the foliage is dry, the plants are exposed to 3500 foot candles of light from a xenon arc source for a period of 16 hours. This light source approximates the spectrum of natural sunlight, and is used to assess photostability of the compounds of this invention on plant foliage.” for “seedlings.”, “Venturia inaequalis” for “Erysiphe cichoracearum”, “10-12” for “7”, “burn” for “burn or growth reduction”

Venturia inaequalis [6] = experiment: apple scab residual wash-off test; type: in vivo; conditions: 1/2 inch simulated rainfall, 10-12 days
Protocol: as §1, with “apple” for “cucumber”, “day, 1/2 inch of simulated rainfall is applied to the foliage of the plants. When the foliage is dry,” for “day,”, “Venturia inaequalis” for “Erysiphe cichoracearum”, “10-12” for “7”, “burn” for “burn or growth reduction”, “on” for “on some of”

Erisyphe cichoracearum = experiment: cucumber powdery mildew curative test; type: in vivo; conditions: Cucumis sativus, 144 h, sprayed day after inoculation, additional 6 days
Text: Cucumber plants are inoculated with a spore suspension of the fungus Erisyphe cichoracearum and in a growth room overnight. The following day, the plants are sprayed to the point of run-off with a suspension prepared by dissolving compounds of this invention in acetone in an amount equal to 6% of the final volume and then suspended at a concentration of 20 ppm in purified water containing 25 ppm of the surfactant Alkanol® XC (sodium alkyl naphthalene sulfonate). Plants are returned to the growth room for an additional 6 days when disease ratings are then made. […] Phytotoxicity in the form of foliar burn or growth reduction was observed on some of the plants in association with disease control.

Sclerotinia sclerotiorum = experiment: white mold on carrot sections dip test; conditions: 100 ppm dip, 20° C., six days
Protocol: Surface-sterilized carrot sections were dipped two minutes in a 100 ppm solution of the compounds of this invention. Additional sections were dipped in a check solution which contained 500 ppm Alkanol® XC (sodium alkyl naphthalene sulfonate). After inoculation by placing a mycelial plug of Sclerotinia sclerotiorum on each carrot section, the test was held at 20° C. for six days.
The untreated carrot sections were completely invaded with the mycelial growth of white mold fungus, but the treated sections had little or no growth by this disease causing organism.

Phytophthora infestans [7] = experiment: whole plant or invertebrate; type: in vivo; conditions: in Solanum lycopersicum, 96 h, read-out: % control tomato late blight in a photostability test
[8] = tested on: Puccinia graminis var. tritici; experiment: whole plant or invertebrate; type: in vivo; conditions: 192 h, read-out: % control wheat rust in a photostability test
Erysiphe cichoracearum [9] = experiment: cucumber powdery mildew residual wash-off test; type: in vivo; conditions: Golovinomyces cichoracearum, 168 h, 1/2 inch simulated rainfall, 7 days
Protocol: Compounds of this invention are dissolved in acetone in an amount equal to 6% of the final volume and then suspended at a concentration of 20 ppm in purified water containing 25 ppm of the surfactant Alkanol® XC (sodium alkyl naphthalene sulfonate). This suspension is sprayed to the point of run-off on cucumber seedlings. The following day, 1/2 inch of simulated rainfall is applied to the foliage of the plants. When the foliage is dry, the plants are inoculated with a spore suspension on the fungus Erysiphe cichoracearum and incubated in a growth room for 7 days. Disease ratings are then made.

Venturia inaequalis [10] = experiment: apple scab preventive test; type: in vivo; conditions: 10-12 days
Protocol: as §1, with “apple” for “cucumber”, “Venturia inaequalis” for “Erysiphe cichoracearum”, “10-12” for “7”, “burn” for “burn or growth reduction”

two-spotted mites = two-spotted mites on bean plants, spray, mortality after two days; type: in vivo; conditions: Tetranychus urticae, 48 h, read-out: % Mortality (2 days)
Protocol: Mortality was evaluated two days after spraying.
Mortality after two days is set forth below.

Erysiphe cichoracearum [11] = experiment: cucumber powdery mildew photostability test; type: in vivo; conditions: Golovinomyces cichoracearum, 168 h, xenon arc 3500 foot candles 16 hours, 7 days
Protocol: Compounds of this invention are dissolved in acetone in an amount equal to 6% of the final volume and then suspended at a concentration of 20 ppm in purified water containing 25 ppm of the surfactant Alkanol® XC (sodium alkyl naphthalene sulfonate). This suspension is sprayed to the point of run-off in cucumber seedlings. When the foliage is dry, the plants are exposed to 3500 foot candles of light from a xenon arc source for a period of 16 hours. This light source approximates the spectrum of natural sunlight, and is used to assess photostability of the compounds of this invention on plant foliage. The following day, the plants are inoculated with a spore suspension of the fungus Erysiphe cichoracearum and incubated in a growth room for 7 days. Disease ratings are then made.

Phytophthora infestans [12] = experiment: whole plant or invertebrate; type: in vivo; conditions: in Solanum lycopersicum, 96 h, read-out: % control tomato late blight in a residual wash-off test
[13] = tested on: red-legged grasshoppers (Melanoplus femurrubrum); experiment: red-legged grasshoppers spray test; type: in vivo; conditions: 10 ppm in acetone, 48 hours
Protocol: Five red-legged grasshoppers (Melanoplus femurrubrum) were confined in each of several cylindrical stainless steel cages (7.5 cm D×4 cm high) with wire screens at the end. These were sprayed with 10 ppm concentration of the indicated compounds in acetone solution. Percent mortality after 48 hours is recorded below.

[14] = tested on: adult cotton boll weevils (Anthonomus grandis); experiment: adult cotton boll weevils spray test; type: in vivo; conditions: 1% acetone solution, 24 hours
Protocol: Five adult cotton boll weevils (Anthonomus grandis) were confined in a 4-oz. wide mouth jar. These were sprayed with a 1% acetone solution of the indicated compounds. Percent mortality after 24 hours is set forth below.

[15] = tested on: brown dog ticks (Rhipicephalus sanguineus); experiment: brown dog ticks spray test; type: in vivo; conditions: 48 h, 12.5 ppm in acetone, forty eight hours
Protocol: Four-ounce wide mouth jars, each containing 10 brown dog ticks (Rhipicephalus sanguineus), were sprayed with 12.5 ppm concentration of the indicated compounds in acetone solution. The ticks were confined with caps which were also sprayed. Forty eight hours later, percent mortality was determined.

adult houseflies = adult houseflies spray test; type: in vivo, housefly; conditions: Musca domestica; 1% acetone solutions, 24 hours
Text: Twenty adult houseflies were confined in each of several cylindrical stainless steel cages (7.5 cm D×4 cm high) with wire screens of the ends. These were sprayed with 1% acetone solutions of the indicated compounds.

[16] = tested on: Eggs of the beet armyworm (Spodoptera exigua); experiment: beet armyworm egg (ovicidal) test, % eggs failing to hatch; type: in vivo; conditions: 72 h, 200 ppm in acetone, three days, read-out: % Control (% eggs failing to hatch)
Protocol: Eggs of the beet armyworm (Spodoptera exigua), laid on cellophane discs each containing 50-75 eggs, were placed in petri dishes and lightly sprayed with 1% concentrations of the indicated compounds in acetone solution. Three days later, percent control (% eggs failing to hatch) was determined.
Eggs of the beet armyworm (Spodoptera exigua), laid on cellophane discs each containing 50-75 eggs, were placed in petri dishes and lightly sprayed with 200 ppm concentration of the indicated compounds in acetone solution. Three days later, percent control (% eggs failing to hatch) was determined.

| Structure (SMILES) | pest or weed control at 20 ppm [1] [%] | pest or weed control at 20 ppm [2] [%] | pest or weed control at 20 ppm (Erysiphe cichoracearum [4]) [%] | pest or weed control at 20 ppm (Venturia inaequalis [5]) [%] | pest or weed control at 20 ppm (Venturia inaequalis [6]) [%] | pest or weed control at 20 ppm (Erisyphe cichoracearum) [%] | % control White Mold (Sclerotinia sclerotiorum) [%] | pest or weed control at 20 ppm (Phytophthora infestans [7]) [%] | pest or weed control at 20 ppm [8] [%] | pest or weed control at 20 ppm (Erysiphe cichoracearum [9]) [%] | pest or weed control at 20 ppm (Venturia inaequalis [10]) [%] | pest or weed control at 20 ppm (Erysiphe cichoracearum [11]) [%] | pest or weed control at 20 ppm (Phytophthora infestans [12]) [%] | further results |
| --- | --- | --- | --- | --- | --- | --- | --- | --- | --- | --- | --- | --- | --- | --- |
| Cc1ccc(S(=O)(=O)N(SN(c2cc(C(F)(F)F)ccc2Cl)c2c([N+](=O)[O-])cc([N+](=O)[O-])cc2C(F)(F)F)C(C)C)cc1 | 100 | 97 | 100 | 0 | 100 | 90 | 100 | 90 | 80 | 99 | 100 | 40 | 100 | inhibition of growth at 100 ppm (Rhizopus): 100%; mortality at 0.0005 % [3]: 83%; mortality at 0.001 % [3]: 99%; mortality at 0.002 % [3]: 99%; mortality at 0.00025 % (two-spotted mites; spray concentration .00025%): 100%; mortality at 0.0005 % (two-spotted mites; spray concentration .0005%): 100%; mortality at 0.001 % (two-spotted mites; spray concentration .001%): 100% |
| CCCCN(SN(c1cc(C(F)(F)F)ccc1Cl)c1c([N+](=O)[O-])cc([N+](=O)[O-])cc1C(F)(F)F)S(=O)(=O)c1ccccc1 | 100 | 97 | 100 | 0 | 100 | 50 | 86 | 90 | 90 | 98 | 100 | 0 | 100 | mortality at 10 ppm [13]: 100%; mortality at 1 % [14]: 100%; mortality at 12.5 ppm [15]: 100%; mortality at 1 % (adult houseflies): 100%; mortality at 200 ppm [16]: 100% |
